Consider 5 molecules from PMC12345137 (mBio, 2025).

In test [1] the target is S. aureus agr-II (Staphylococcus aureus, UniProt O33587). The test is described as follows: cell-based. In short, it runs like this: (§1)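 Reporter strains, with YFP (S. aureus) or sGFP (S. epidermidis) under agr P3, were diluted 1:100 from overnight TSB cultures with antibiotic and exposed to peptides for 22–24 h at 37°C, shaking. Background-subtracted fluorescence was normalized to OD600 and expressed relative to peptide-free control wells; IC50 came from variable-slope non-linear regression.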

Test [2] concerns the target S. aureus agr-III (Staphylococcus aureus, UniProt O33590). The test is described as follows: cell-based. In short, it runs like this: as §1
The target of test [3] is S. lugdunensis agr-I (Staphylococcus lugdunensis, UniProt Q8VSW5). The test is described as follows: cell-based. The note with it: for QS interaction in words (inhibition / activation), S. lugdunensis agr-I: fluorescent reporter strain, peptides tested at 1000, 50, 2.5, 0.125 nM or in dose-response. In short, it runs like this: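 Staphylococcal agr reporters were grown with peptide for 22–24 h at 37°C. Background-corrected fluorescence per OD600 was expressed as a percentage of untreated control, and IC50 was obtained by variable-slope regression.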

Test [4] addresses S. epidermidis agr-II (Staphylococcus epidermidis, UniProt Q8VSX5). Briefly: cell-based. The note with it: for QS interaction in words (inhibition / activation), S. epidermidis agr-II: fluorescent reporter strain, peptides tested at 1000, 50, 2.5, 0.125 nM or in dose-response. In kind it is cell-based. Summed up:
as §1

Test [5] has as its target S. epidermidis agr-III (Staphylococcus epidermidis, UniProt Q8VSX2). The test is described as follows: cell-based. The settings on record: for QS interaction in words (inhibition / activation), S. epidermidis agr-III: fluorescent reporter strain, peptides tested at 1000, 50, 2.5, 0.125 nM or in dose-response. In kind it is cell-based. Summed up: as §1
Test [6] addresses SA AgrC-I (Staphylococcus aureus, UniProt O07911).
For test [7], the system named is S. aureus (SA) agr-III. The note with it: fluorescence, cited from earlier work.
Test [8] addresses S. aureus agr-IV (Staphylococcus aureus, UniProt Q309Z2). Briefly: cell-based. In kind it is cell-based. In short, it runs like this:
as §1

The test system of test [9] is S. aureus (SA) agr-IV. The settings on record: fluorescence, cited from earlier work.
Test [10] has as its target SA AgrC-II (Staphylococcus aureus, UniProt O33587). Briefly: β-Lactamase assay, reporter strain RN10829 (P2-agrA:P3-blaZ) with pagrC-II. In kind it is cell-based. In short, it runs like this:
(§2)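 Peptides at 10 μM–10 pM final were tested against 100 nM cognate AIP on early-exponential RN10829 cells that express the relevant AgrC from a plasmid and carry a chromosomal P3-blaZ reporter; incubation 1 h at 37°C. After freezing, β-lactamase was read as nitrocefin conversion at OD486, and IC50 came from non-linear regression of the rates.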

Test [11] deals with SA AgrC-IV (Staphylococcus aureus, UniProt Q309Z2). The test is described as follows: β-Lactamase assay, reporter strain RN10829 (P2-agrA:P3-blaZ) with pagrC-IV. In kind it is cell-based. In short, it runs like this:
as §2

The mark [12] stands for this setting: fluorescent reporter strain, peptides tested at 1000, 50, 2.5, 0.125 nM or in dose-response.

Entries after “also recorded” stand apart in the source; their conditions may differ. Read-outs that look alike come from different tables or passages of the source. Positions of bridges follow the written chain, without caps; N, C: chain ends. Residues, ends and D or L forms follow the SMILES beside them.

Sequence of S. epidermidis agr-II (Q8VSX5 entry or part of it): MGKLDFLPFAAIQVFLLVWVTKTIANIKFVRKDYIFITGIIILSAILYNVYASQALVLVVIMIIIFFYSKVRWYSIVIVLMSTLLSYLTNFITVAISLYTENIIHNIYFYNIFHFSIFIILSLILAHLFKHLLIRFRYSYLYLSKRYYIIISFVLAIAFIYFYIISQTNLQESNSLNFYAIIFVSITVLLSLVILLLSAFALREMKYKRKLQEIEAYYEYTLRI
Sequence of S. epidermidis agr-III (Q8VSX2 entry or part of it): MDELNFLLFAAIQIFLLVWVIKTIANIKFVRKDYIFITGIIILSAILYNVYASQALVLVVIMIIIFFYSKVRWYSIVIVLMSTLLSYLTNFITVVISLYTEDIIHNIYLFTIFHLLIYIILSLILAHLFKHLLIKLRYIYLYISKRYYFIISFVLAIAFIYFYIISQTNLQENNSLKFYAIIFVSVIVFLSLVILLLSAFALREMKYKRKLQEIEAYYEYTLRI
Sequence of S. lugdunensis agr-I (Q8VSW5 entry or part of it): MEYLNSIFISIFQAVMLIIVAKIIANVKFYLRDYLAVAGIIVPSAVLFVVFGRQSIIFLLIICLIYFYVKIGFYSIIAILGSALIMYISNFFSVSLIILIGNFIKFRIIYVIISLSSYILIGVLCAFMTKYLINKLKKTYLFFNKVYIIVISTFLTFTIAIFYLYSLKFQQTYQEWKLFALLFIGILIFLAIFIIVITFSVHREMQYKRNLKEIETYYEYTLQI
Sequence of S. aureus agr-III (O33590 entry or part of it): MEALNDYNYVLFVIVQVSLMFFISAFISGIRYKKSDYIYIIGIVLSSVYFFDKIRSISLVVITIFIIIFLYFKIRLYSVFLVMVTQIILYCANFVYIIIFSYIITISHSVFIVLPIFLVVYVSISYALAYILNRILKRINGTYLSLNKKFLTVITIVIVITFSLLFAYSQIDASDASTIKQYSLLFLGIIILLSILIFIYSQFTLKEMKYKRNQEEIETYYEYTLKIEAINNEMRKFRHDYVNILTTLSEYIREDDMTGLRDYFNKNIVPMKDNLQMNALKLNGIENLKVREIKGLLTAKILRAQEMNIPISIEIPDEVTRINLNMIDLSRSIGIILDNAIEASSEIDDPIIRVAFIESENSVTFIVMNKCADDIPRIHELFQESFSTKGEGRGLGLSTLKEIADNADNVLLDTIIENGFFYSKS
Sequence of SA AgrC-I (O07911 entry or part of it): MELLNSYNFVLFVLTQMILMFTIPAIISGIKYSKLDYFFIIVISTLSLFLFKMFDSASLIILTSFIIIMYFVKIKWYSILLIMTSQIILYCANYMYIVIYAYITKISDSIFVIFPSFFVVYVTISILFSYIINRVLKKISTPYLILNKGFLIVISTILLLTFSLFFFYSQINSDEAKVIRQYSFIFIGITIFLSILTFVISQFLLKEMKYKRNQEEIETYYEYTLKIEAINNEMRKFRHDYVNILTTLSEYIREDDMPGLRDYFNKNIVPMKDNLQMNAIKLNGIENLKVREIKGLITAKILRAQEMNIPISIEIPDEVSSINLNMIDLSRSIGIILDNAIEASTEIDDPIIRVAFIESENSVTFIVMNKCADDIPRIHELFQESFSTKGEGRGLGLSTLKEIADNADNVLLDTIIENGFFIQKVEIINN
Sequence of S. aureus agr-II (O33587 entry or part of it): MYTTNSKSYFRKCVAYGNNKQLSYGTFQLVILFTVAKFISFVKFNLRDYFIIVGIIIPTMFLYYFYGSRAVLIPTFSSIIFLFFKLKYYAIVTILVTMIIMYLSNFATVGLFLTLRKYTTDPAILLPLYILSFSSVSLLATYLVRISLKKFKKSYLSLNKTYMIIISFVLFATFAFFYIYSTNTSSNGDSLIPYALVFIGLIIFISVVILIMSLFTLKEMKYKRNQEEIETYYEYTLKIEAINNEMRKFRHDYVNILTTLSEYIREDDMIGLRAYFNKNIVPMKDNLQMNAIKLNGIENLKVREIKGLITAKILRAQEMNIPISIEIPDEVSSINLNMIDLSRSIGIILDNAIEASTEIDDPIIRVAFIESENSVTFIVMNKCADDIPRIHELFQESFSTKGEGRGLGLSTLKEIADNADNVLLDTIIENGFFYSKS
Sequence of S. aureus agr-IV (Q309Z2 entry or part of it): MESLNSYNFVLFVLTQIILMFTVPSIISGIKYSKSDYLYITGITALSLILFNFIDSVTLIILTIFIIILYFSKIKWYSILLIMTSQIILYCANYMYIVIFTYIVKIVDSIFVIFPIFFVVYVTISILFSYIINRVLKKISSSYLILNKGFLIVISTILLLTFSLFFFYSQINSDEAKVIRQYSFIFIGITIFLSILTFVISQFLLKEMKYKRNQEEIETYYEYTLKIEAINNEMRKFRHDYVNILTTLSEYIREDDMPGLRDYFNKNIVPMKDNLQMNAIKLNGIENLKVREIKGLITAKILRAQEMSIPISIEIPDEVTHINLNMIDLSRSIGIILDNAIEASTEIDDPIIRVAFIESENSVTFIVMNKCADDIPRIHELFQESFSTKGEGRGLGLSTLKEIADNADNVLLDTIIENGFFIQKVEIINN
Sequence of SA AgrC-II (O33587 entry or part of it): as the sequence (O33587 entry or part of it) above
Sequence of SA AgrC-IV (Q309Z2 entry or part of it): as the sequence (Q309Z2 entry or part of it) above

Take `CC[C@H](C)[C@@H]1NC(=O)[C@H](Cc2ccccc2)NC(=O)[C@H](CC(=O)O)NC(=O)[C@@H](NC(=O)[C@@H](NC(=O)[C@H](CO)NC(=O)[C@@H](N)Cc2ccc(O)cc2)[C@@H](C)O)CSC(=O)[C@H](CCSC)NC1=O` [compound 1, S. aureus AIP-I] (H-YSTCDFIM; thioester 4-C): the IC50 in test [1] was 5.8 ± 0.7 nM; in test [2] it was 0.91 nM; in test [3], more than 1000 nM; in [4] it was more than 1000 nM; in test [5], more than 1000 nM; in test [7] (ref (5)), 0.53 nM. In addition, the EC50 in test [6] (± SEM; determined previously; ref (1); read-out: EC50, SA AgrC-I, b-lactamase assay; cited from earlier work) was 5.4 ± 0.5 nM.

In the case of `CC(C)C[C@@H]1NC(=O)[C@@H](NC(=O)[C@@H]2CCCN2C(=O)[C@H](CC(N)=O)NC(=O)[C@H](Cc2ccc(O)cc2)NC(=O)[C@@H](N)CCCCN)CSC(=O)[C@H](CC(C)C)NC(=O)[C@H](Cc2ccccc2)NC(=O)CNC1=O` [compound 32, S. simulans AIP-I] (H-KYNPCLGFL; thioester 5-C; N-terminus assumed), the IC50 in test [1] was 0.31 ± 0.01 nM; in [2] it was 0.53 ± 0.02 nM; in [3] it was 113 ± 11 nM; in test [8], 10 nM; in test [4], 0.26 ± 0.01 nM; in [6] (read-out: IC50, SA AgrC-I, b-lactamase assay; 100 nM cognate AIP; ± SEM; -b = no inhibition recorded at the highest AIP concentration tested; determined previously; ref (1); cited from earlier work) it was 8.6 ± 0.5 nM. For the same molecule, the IC50 in [7] (ref (17)) was 3.5 nM; in test [9] (ref (17)), 23 nM. Besides, the “QS interaction in words (inhibition / activation), S. epidermidis agr-III” value was “activated; also recorded: activators” in test [5] and “activation” in test [5] (listed as S. simulans AIP-I).

Regarding `NCCCC[C@H](N)C(=O)N[C@@H](Cc1ccc(O)cc1)C(=O)N[C@@H](Cc1ccc(O)cc1)C(=O)N1CCC[C@H]1C(=O)N[C@H]1CSC(=O)[C@H](Cc2ccccc2)NC(=O)[C@H](Cc2ccc(O)cc2)NC(=O)CNC(=O)[C@H](Cc2c[nH]c3ccccc23)NC1=O` [compound 33, S. simulans AIP-II] (H-KYYPCWGYF; thioester 5-C), the IC50 in test [1] is 0.8 ± 0.2 nM; in test [2], 2.8 ± 0.3 nM; in [3], 1.2 ± 0.2 nM; in [8], 31 ± 7 nM; in test [4], 0.26 ± 0.08 nM; in test [5], 0.6 ± 0.2 nM. The IC50 in test [10] was 80 ± 7 nM; in [11] it was 273 ± 26 nM; in test [7] (ref (17)), 11.5 nM; in test [9] (ref (17)) it was 40 nM. Moreover, the “QS interaction in words (inhibition / activation), S. aureus agr-II” value in test [1] (setting [12]) is given as “inhibited”. Besides, the “QS interaction in words (inhibition / activation), S. aureus agr-III” value in [2] (setting [12]) is reported as “inhibited”. For the same molecule, the “QS interaction in words (inhibition / activation), S. lugdunensis agr-I” value in test [3] is “inhibited; also recorded: sub- or low-nanomolar potencies”. The “QS interaction in words (inhibition / activation), S. aureus agr-IV” value in test [8] (setting [12]) is on record as “inhibited”. Moreover, the “QS interaction in words (inhibition / activation), S. epidermidis agr-II” value in test [4] is on record as “inhibited”. Moreover, the “QS interaction in words (inhibition / activation), S. epidermidis agr-III” value in test [5] is given as “inhibited; also recorded: sub-nanomolar inhibition”.

Consider `NCCCC[C@H](N)C(=O)N[C@@H](Cc1ccc(O)cc1)C(=O)N[C@@H](CC(N)=O)C(=O)N1CCC[C@H]1C(=O)N[C@H]1CSC(=O)[C@H](Cc2ccccc2)NC(=O)[C@H](Cc2ccc(O)cc2)NC(=O)CNC(=O)[C@H](Cc2c[nH]c3ccccc23)NC1=O` [compound 34, S. simulans AIP-III] (H-KYNPCWGYF; thioester 5-C), for which the IC50 in [1] amounted to 0.22 ± 0.06 nM; in [2], 0.59 ± 0.04 nM; in test [3] it was 0.48 nM; in test [8], 34 nM; in [4], 0.11 ± 0.02 nM; in test [10] it was 60 ± 7 nM. The IC50 is 351 ± 60 nM in test [11], 3.2 nM in test [7] (ref (17)) and 48 nM in [9] (ref (17)). For the same molecule, the “IC50 fold lower compared with the most potent, previously reported inhibitors of S. lugdunensis” value in [3] (S. lugdunensis agr-I, comparison with [37]) was determined as 400 fold. In addition, the “QS interaction in words (inhibition / activation), S. lugdunensis agr-I” value in test [3] is listed as “sub- or low-nanomolar potencies”. Also, the “QS interaction in words (inhibition / activation), S. epidermidis agr-III” value in [5] was “activated; also recorded: activators”; in [5] (listed as S. simulans AIP-III), “activator”.

As to “S. aureus AIP-III D4A [compound 57, reference compound]”, the “QS interaction in words (inhibition / activation), S. lugdunensis agr-I” value in test [3] is given as “weak interference”. For the same molecule, the “QS inhibition at […], S. aureus agr-IV” value in test [8] ([…] peptide, fluorescent reporter strain) is listed as more than 95%. Also, in [4], the “QS interaction in words (inhibition / activation), S. epidermidis agr-II” value is “weak interference”. Further, the “QS interaction in words (inhibition / activation), S. epidermidis agr-III” value in test [5] is recorded as “weak interference”. Also, the IC50 in test [6] (100 nM cognate AIP; ± SEM; -b = no inhibition recorded at the highest AIP concentration tested; determined previously; ref (1); read-out: IC50, SA AgrC-I, b-lactamase assay; cited from earlier work) was 3.3 ± 0.7 nM; in test [7] (ref (5)), 0.051 nM; in test [9] (ref (5)) it was 0.035 nM.
